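Compound exposure: 48 hours, 5 concentrations, 96-well plates. GI50: concentration for 50% inhibition of growth.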 Calls of active or inactive are those of the source. Rule as the data show it: active = GI50 up to about 1.1 µM and inactive = higher. Some results are limits rather than exact numbers.

Some test systems named below: CAKI-1; EKVX; HCT-116; HCT-15; HOP-62; Hs-578T; LOX IMVI; MDA-N; MOLT-4; OVCAR-8; SF-268; SF-539; SK-MEL-28; SK-OV-3; SN12C; SW-620; U-251; UO-31; NCI-H522.
Common to all, as to experiment: NCI tumour cell line growth inhibition, 48 h

As to `O=C(O)c1ccc(Nc2cnc3ccc(C(F)(F)F)cc3n2)cc1`, the GI50 in the test on CAKI-1 is 14.4 µM (inactive); with EKVX it was 38.2 µM (inactive); in the test on HCT-116, 20.1 µM (inactive); in the test with HCT-15 it was 18.7 µM; in the test on HOP-62, 16.1 µM (inactive); in the test with Hs-578T it was 7.08 µM (inactive). In addition, the GI50 in the test on LOX IMVI was 12.1 µM (inactive); with MDA-N, 17 µM (inactive); in the test with MOLT-4, 19.9 µM (inactive); in the test with OVCAR-8 it was 17.1 µM (inactive); in the test with SF-268, 31 µM (inactive); in the test on SF-539, 23.9 µM (inactive). In addition, the GI50 in the test on SK-MEL-28 is 34 µM (inactive); with SK-OV-3 it was 33.5 µM (inactive); with SN12C, 25.5 µM (inactive); with SW-620, 20.9 µM (inactive); in the test with U-251, 24.7 µM (inactive); with UO-31, 13.7 µM (inactive).
With `O=C1c2cc3ccccc3cc2C2(c3ccc(Cl)cc3)NCCN12` (configuration not stated), the GI50 in the test on CAKI-1 was 44.7 µM (inactive); in the test on EKVX, 26.5 µM (inactive); with HCT-116 it was 18 µM (inactive); with HCT-15, 27 µM; in the test with HOP-62, 32.4 µM (inactive); with Hs-578T, 38.3 µM (inactive). In addition, the GI50 in the test on LOX IMVI was 21.9 µM (inactive); with MDA-N it was 28.2 µM (inactive); in the test on MOLT-4, 33.2 µM (inactive); in the test with OVCAR-8, 33.3 µM (inactive); with SF-268, 44.2 µM (inactive); with SF-539, 23 µM (inactive). In addition, the GI50 was 39.6 µM (inactive) in the test on SK-MEL-28; 29.3 µM (inactive) with SK-OV-3; 49.5 µM (inactive) in the test on SN12C; 50.4 µM (inactive) in the test with SW-620; 34.9 µM (inactive) in the test on U-251; 29.9 µM (inactive) in the test with UO-31.
In the case of `CC(=O)CC1CCC(=O)CCC(=O)OC(CC(C)=O)CCC(=O)CCC(=O)O1` (configuration not stated), the GI50 in the test on EKVX is > 100 µM (inactive); in the test with HCT-116, > 100 µM (inactive); with HCT-15, more than 100 µM; in the test on HOP-62, > 100 µM (inactive); with Hs-578T, > 100 µM (inactive); in the test with MDA-N it was > 100 µM (inactive). Besides, the GI50 in the test with MOLT-4, with NCI-H522, in the test with OVCAR-8, with SF-268, in the test on SF-539 and in the test on SK-MEL-28 was > 100 µM (inactive) in each case. For the same compound, the GI50 in the test with SK-OV-3, in the test on SN12C, in the test with SW-620 and in the test on U-251 was > 100 µM (inactive) throughout.
In the case of `C/C(=N\Nc1ccc([N+](=O)[O-])cc1[N+](=O)[O-])c1ccc2ccccc2n1`, the GI50 in the test with CAKI-1 is 58.9 µM (inactive); in the test on EKVX, > 100 µM (inactive); in the test on HCT-116 it was 57.4 µM (inactive); with HCT-15 it was 60.3 µM; in the test on Hs-578T, 25.3 µM (inactive); in the test with MDA-N, > 100 µM (inactive). The GI50 with MOLT-4 was > 100 µM (inactive); with NCI-H522 it was 13.7 µM (inactive); in the test with OVCAR-8 it was 47.3 µM (inactive); in the test on SF-268, 61 µM (inactive); with SF-539 it was 81.8 µM (inactive); in the test with SK-MEL-28, > 100 µM (inactive). The GI50 was > 100 µM (inactive) in the test on SK-OV-3; > 100 µM (inactive) in the test on SN12C; > 100 µM (inactive) in the test with SW-620; 33.1 µM (inactive) in the test on U-251; 51.4 µM (inactive) with UO-31.
In the case of `CC(=O)NCC1OC2COC(c3ccccc3)OC2C2N=C(c3ccccc3)OC12` (configuration not stated), the GI50 was > 100 µM (inactive) with CAKI-1; 38 µM (inactive) in the test with EKVX; 38.4 µM (inactive) with HCT-116; 43.4 µM in the test on HCT-15; > 100 µM (inactive) in the test with HOP-62; 51.5 µM (inactive) in the test on Hs-578T. In addition, the GI50 in the test with LOX IMVI is 79.6 µM (inactive); in the test on MDA-N, 39.1 µM (inactive); in the test on MOLT-4 it was 43.2 µM (inactive); in the test on OVCAR-8, 57 µM (inactive); in the test on SF-268, 81.1 µM (inactive); in the test with SF-539, > 100 µM (inactive). In addition, the GI50 is 59.6 µM (inactive) in the test on SK-MEL-28; 74.1 µM (inactive) with SK-OV-3; > 100 µM (inactive) with SN12C; 80.9 µM (inactive) in the test with SW-620; > 100 µM (inactive) in the test with U-251; 39.9 µM (inactive) in the test with UO-31.
Take `O=C(OCC1CCCN2CCCCC12)c1ccncc1` (configuration not stated): the GI50 is > 100 µM (inactive) with CAKI-1; > 100 µM (inactive) with EKVX; > 100 µM (inactive) in the test on HCT-116; more than 100 µM in the test on HCT-15; > 100 µM (inactive) in the test with HOP-62; > 100 µM (inactive) with Hs-578T. Also, the GI50 in the test with LOX IMVI, in the test with MDA-N, with MOLT-4, in the test on OVCAR-8, in the test on SF-268 and with SF-539 was > 100 µM (inactive) each time. Further, the GI50 in the test on SK-MEL-28, in the test with SK-OV-3, in the test on SN12C, in the test on SW-620, in the test with U-251 and with UO-31 was > 100 µM (inactive) in each case.
`O=[N+]([O-])c1cccc(-c2ncc3c(n2)-c2ccccc2C3)c1`: the GI50 was 42.7 µM (inactive) in the test with CAKI-1; 94.4 µM (inactive) in the test on EKVX; > 100 µM (inactive) in the test on HCT-116; more than 100 µM with HCT-15; 32.9 µM (inactive) in the test on Hs-578T; > 100 µM (inactive) in the test on MDA-N. Moreover, the GI50 was > 100 µM (inactive) in the test on MOLT-4; 24.7 µM (inactive) in the test with NCI-H522; > 100 µM (inactive) with OVCAR-8; 51.6 µM (inactive) in the test on SF-268; > 100 µM (inactive) in the test with SF-539; > 100 µM (inactive) with SK-MEL-28. For the same compound, the GI50 is > 100 µM (inactive) in the test with SK-OV-3; > 100 µM (inactive) with SN12C; > 100 µM (inactive) with SW-620; 93.8 µM (inactive) in the test with U-251; > 100 µM (inactive) in the test on UO-31.
`C[n+]1c(-c2ccc(/C=N/Nc3ccnc(N/N=C/c4ccc(-c5cn6ccsc6[n+]5C)cc4)n3)cc2)cn2ccsc21`: the GI50 is 18.5 µM (inactive) with CAKI-1; 18.8 µM (inactive) in the test with EKVX; 27.5 µM with HCT-15; 25.9 µM (inactive) in the test on HOP-62; 69.5 µM (inactive) in the test with Hs-578T; 3.94 µM (inactive) with MDA-N. In addition, the GI50 in the test with MOLT-4 was 17.8 µM (inactive); with NCI-H522, 92.7 µM (inactive); in the test on OVCAR-8, 28.9 µM (inactive); with SF-539, 27 µM (inactive); in the test on SK-OV-3, > 100 µM (inactive); in the test with SN12C it was 31.5 µM (inactive). In addition, the GI50 is 33 µM (inactive) in the test with SW-620, 30.9 µM (inactive) in the test with U-251 and 18.8 µM (inactive) in the test with UO-31.
